According to article PMC8877008, “Synthesis and Structure–Activity Relationship Studies of Benzimidazole-4,7-dione-Based P2X3 Receptor Antagonists as Novel Anti-Nociceptive Agents” (Molecules, 2022):

Test system: CIPN rats
Assay: Antiallodynic effect, cisplatin chemotherapy-induced peripheral neuropathy (CIPN) model, von Frey
Format: in vivo, male Sprague-Dawley rats
Conditions: intravenous 12 mg/kg, von Frey filaments, five rats
Excerpt: The experimental protocol (CNUHIACUC-20039) was approved by the Institutional Animal Care and Use Committee of Chonnam National University Hospital. Animal models of neuropathic pain (NP) were constructed by spinal nerve ligation (SNL) or chemotherapeutics injection (chemotherapy-induced peripheral neuropathy, CIPN) in male Sprague-Dawley rats (weight, 150–180 g). Briefly, under sevoflurane anesthesia, the left L5 and L6 spinal nerves near the vertebral column were separated and tightly ligated using 6-0 silk. Cisplatin was administered intraperitoneally at 2 mg/kg once daily for 4 days. The paw withdrawal threshold (PWT) to mechanical stimuli was measured using calibrated 0.41–15.2 g von Frey filaments (Stoelting, Wood Dale, IL, USA), as described previously. […] The antiallodynic effects of the intravenous vehicle and LDD4692 (3mg/rat) were evaluated and expressed as the percentage of the maximal possible effect (% MPE). % MPE = [(post drug PWT − post injured baseline PWT)/(cutoff PWT − post injured baseline PWT)] × 100
For the analysis of antagonistic activities, all data were calculated by Origin Pro 9.1 software provided by Originlab and the fitting of graphs was proceeded by the growth/sigmoidal and hill1 process within no weights for data selections. For the analysis of the behavioral assessments of pain models, all data are expressed as mean ± SEM. […]

For O=C1C(NC2CCN(C(=O)c3ccc(F)c(F)c3)CC2)=C(Cl)C(=O)c2[nH]c(C(F)(F)F)nc21 [14h, 6-Chloro-5-((1-(3,4-difluorobenzoyl)piperidin-4-yl)amino)-2-(trifluoromethyl)-1H-benzo[d]imidazole-4,7-dione], the “Maximal possible effect (% MPE), antiallodynic” value was 78%.
